# Data taken from article PMC6199309, “A therapeutic approach to pantothenate kinase associated neurodegeneration” (Nature Communications, 2018).
# Tests used:
# [1] = target: T1, TNK2 (Homo sapiens, UniProt Q07912); assay: KINOMEscan; type: binding; settings: read-out: %Ctrl @ 10000nM
# T1 construct: purchased DiscoverX KINOMEscan
# [2] = target: T2, FER (Homo sapiens, UniProt P16591); assay: KINOMEscan; type: binding; settings: read-out: %Ctrl @ 10000nM
# T2 construct: purchased DiscoverX KINOMEscan
# [3] = target: T3, CDKL2 (Homo sapiens, UniProt Q92772); assay: KINOMEscan; type: binding; settings: read-out: %Ctrl @ 10000nM
# T3 construct: purchased DiscoverX KINOMEscan
# [4] = target: T4, TIE1 (Homo sapiens, UniProt P35590); assay: KINOMEscan; type: binding; settings: read-out: %Ctrl @ 10000nM
# T4 construct: purchased DiscoverX KINOMEscan
# [5] = target: T5, ABL1(Q252H)-phosphorylated (Homo sapiens, UniProt P00519, Q252H); assay: KINOMEscan; type: binding; settings: read-out: %Ctrl @ 10000nM
# T5 construct: purchased DiscoverX KINOMEscan
# [6] = target: T6, HCK (Homo sapiens, UniProt P08631); assay: KINOMEscan; type: binding; settings: read-out: %Ctrl @ 10000nM
# T6 construct: purchased DiscoverX KINOMEscan
# [7] = target: T7, TRKA (Homo sapiens, UniProt P04629); assay: KINOMEscan; type: binding; settings: read-out: %Ctrl @ 10000nM
# T7 construct: purchased DiscoverX KINOMEscan
# [8] = target: T8, ALK (Homo sapiens, UniProt Q9UM73); assay: KINOMEscan; type: binding; settings: read-out: %Ctrl @ 10000nM
# T8 construct: purchased DiscoverX KINOMEscan
# [9] = target: T9, ALK(C1156Y) (Homo sapiens, UniProt Q9UM73, C1156Y); assay: KINOMEscan; type: binding; settings: read-out: %Ctrl @ 10000nM
# T9 construct: purchased DiscoverX KINOMEscan
# [10] = target: T10, PAK6 (Homo sapiens, UniProt Q9NQU5); assay: KINOMEscan; type: binding; settings: read-out: %Ctrl @ 10000nM
# T10 construct: purchased DiscoverX KINOMEscan
# [11] = target: T11, PIK4CB (Homo sapiens, UniProt Q9UBF8); assay: KINOMEscan; type: binding; settings: read-out: %Ctrl @ 10000nM
# T11 construct: purchased DiscoverX KINOMEscan
# [12] = target: T12, PHKG2 (Homo sapiens, UniProt P15735); assay: KINOMEscan; type: binding; settings: read-out: %Ctrl @ 10000nM
# T12 construct: purchased DiscoverX KINOMEscan
# [13] = target: T13, MAP3K2 (Homo sapiens, UniProt Q9Y2U5); assay: KINOMEscan; type: binding; settings: read-out: %Ctrl @ 10000nM
# T13 construct: purchased DiscoverX KINOMEscan
# [14] = target: T14, FRK (Homo sapiens, UniProt P42685); assay: KINOMEscan; type: binding; settings: read-out: %Ctrl @ 10000nM
# T14 construct: purchased DiscoverX KINOMEscan
# [15] = target: T15, MYO3B (Homo sapiens, UniProt Q8WXR4); assay: KINOMEscan; type: binding; settings: read-out: %Ctrl @ 10000nM
# T15 construct: purchased DiscoverX KINOMEscan
# [16] = target: T16, ERBB3 (Homo sapiens, UniProt P21860); assay: KINOMEscan; type: binding; settings: read-out: %Ctrl @ 10000nM
# T16 construct: purchased DiscoverX KINOMEscan
# [17] = target: T17, RPS6KA4(Kin.Dom.1-N-terminal) (Homo sapiens, UniProt O75676); assay: KINOMEscan; type: binding; settings: read-out: %Ctrl @ 10000nM
# T17 construct: RPS6KA4(Kin.Dom.1-N-terminal); purchased DiscoverX KINOMEscan
# [18] = target: T18, EPHB6 (Homo sapiens, UniProt O15197); assay: KINOMEscan; type: binding; settings: read-out: %Ctrl @ 10000nM
# T18 construct: purchased DiscoverX KINOMEscan
# [19] = target: T19, CASK (Homo sapiens, UniProt O14936); assay: KINOMEscan; type: binding; settings: read-out: %Ctrl @ 10000nM
# T19 construct: purchased DiscoverX KINOMEscan
# [20] = target: T20, RPS6KA5(Kin.Dom.2-C-terminal) (Homo sapiens, UniProt O75582); assay: KINOMEscan; type: binding; settings: read-out: %Ctrl @ 10000nM
# T20 construct: RPS6KA5(Kin.Dom.2-C-terminal); purchased DiscoverX KINOMEscan
# [21] = target: T21, ULK3 (Homo sapiens, UniProt Q6PHR2); assay: KINOMEscan; type: binding; settings: read-out: %Ctrl @ 10000nM
# T21 construct: DNA label for qPCR (T7 phage fusion or DNA tag); purchased DiscoverX scanMAX; host or cells: E. coli BL21-derived (T7 phage) or HEK-293
# [22] = Plasma stability; type: in vitro ADME; settings: mouse, read-out: Plasma Stability T1/2
# [23] = target: T22, EPHA3 (Homo sapiens, UniProt P29320); assay: KINOMEscan; type: binding; settings: read-out: %Ctrl @ 10000nM
# T22 construct: purchased DiscoverX KINOMEscan
# [24] = target: T23, JNK2 (Homo sapiens, UniProt P45984); assay: KINOMEscan; type: binding; settings: read-out: %Ctrl @ 10000nM
# T23 construct: purchased DiscoverX KINOMEscan
# [25] = target: T24, TESK1 (Homo sapiens, UniProt Q15569); assay: KINOMEscan; type: binding; settings: read-out: %Ctrl @ 10000nM
# T24 construct: purchased DiscoverX KINOMEscan
# [26] = target: T25, MET(Y1235D) (Homo sapiens, UniProt P08581, Y1235D); assay: KINOMEscan; type: binding; settings: read-out: %Ctrl @ 10000nM
# T25 construct: purchased DiscoverX KINOMEscan
# [27] = target: T26, SGK (Homo sapiens, UniProt O00141); assay: KINOMEscan; type: binding; settings: read-out: %Ctrl @ 10000nM
# T26 construct: purchased DiscoverX KINOMEscan
# [28] = target: T27, PRKD2 (Homo sapiens, UniProt Q9BZL6); assay: KINOMEscan; type: binding; settings: read-out: %Ctrl @ 10000nM
# T27 construct: purchased DiscoverX KINOMEscan
# [29] = target: T28, CAMK2G (Homo sapiens, UniProt Q13555); assay: KINOMEscan; type: binding; settings: read-out: %Ctrl @ 10000nM
# T28 construct: purchased DiscoverX KINOMEscan
# [30] = target: T29, AURKC (Homo sapiens, UniProt Q9UQB9); assay: KINOMEscan; type: binding; settings: read-out: %Ctrl @ 10000nM
# T29 construct: purchased DiscoverX KINOMEscan
# [31] = target: T30, ARK5 (Homo sapiens, UniProt O60285); assay: KINOMEscan; type: binding; settings: read-out: %Ctrl @ 10000nM
# T30 construct: purchased DiscoverX KINOMEscan
# [32] = target: T31, MLK2 (Homo sapiens, UniProt Q02779); assay: KINOMEscan; type: binding; settings: read-out: %Ctrl @ 10000nM
# T31 construct: purchased DiscoverX KINOMEscan
# [33] = target: T32, DCAMKL2 (Homo sapiens, UniProt Q8N568); assay: KINOMEscan; type: binding; settings: read-out: %Ctrl @ 10000nM
# T32 construct: purchased DiscoverX KINOMEscan
# [34] = target: T33, STK33 (Homo sapiens, UniProt Q9BYT3); assay: KINOMEscan; type: binding; settings: read-out: %Ctrl @ 10000nM
# T33 construct: purchased DiscoverX KINOMEscan
# [35] = target: T34, ERK5 (Homo sapiens, UniProt Q13164); assay: KINOMEscan; type: binding; settings: read-out: %Ctrl @ 10000nM
# T34 construct: purchased DiscoverX KINOMEscan
# [36] = target: T35, ULK2 (Homo sapiens, UniProt Q8IYT8); assay: KINOMEscan; type: binding; settings: read-out: %Ctrl @ 10000nM
# T35 construct: DNA label for qPCR (T7 phage fusion or DNA tag); purchased DiscoverX scanMAX; host or cells: E. coli BL21-derived (T7 phage) or HEK-293
# [37] = target: T36, MAP4K4 (Homo sapiens, UniProt O95819); assay: KINOMEscan; type: binding; settings: read-out: %Ctrl @ 10000nM
# T36 construct: purchased DiscoverX KINOMEscan
# [38] = target: T37, RIOK1 (Homo sapiens, UniProt Q9BRS2); assay: KINOMEscan; type: binding; settings: read-out: %Ctrl @ 10000nM
# T37 construct: purchased DiscoverX KINOMEscan
# [39] = target: T38, KIT(V559D) (Homo sapiens, UniProt P10721, V559D); assay: KINOMEscan; type: binding; settings: read-out: %Ctrl @ 10000nM
# T38 construct: purchased DiscoverX KINOMEscan
# [40] = target: T39, RPS6KA4(Kin.Dom.2-C-terminal) (Homo sapiens, UniProt O75676); assay: KINOMEscan; type: binding; settings: read-out: %Ctrl @ 10000nM
# T39 construct: RPS6KA4(Kin.Dom.2-C-terminal); purchased DiscoverX KINOMEscan
# [41] = target: T40, PRKG1 (Homo sapiens, UniProt Q13976); assay: KINOMEscan; type: binding; settings: read-out: %Ctrl @ 10000nM
# T40 construct: purchased DiscoverX KINOMEscan
# T40 sequence (Q13976 whole entry): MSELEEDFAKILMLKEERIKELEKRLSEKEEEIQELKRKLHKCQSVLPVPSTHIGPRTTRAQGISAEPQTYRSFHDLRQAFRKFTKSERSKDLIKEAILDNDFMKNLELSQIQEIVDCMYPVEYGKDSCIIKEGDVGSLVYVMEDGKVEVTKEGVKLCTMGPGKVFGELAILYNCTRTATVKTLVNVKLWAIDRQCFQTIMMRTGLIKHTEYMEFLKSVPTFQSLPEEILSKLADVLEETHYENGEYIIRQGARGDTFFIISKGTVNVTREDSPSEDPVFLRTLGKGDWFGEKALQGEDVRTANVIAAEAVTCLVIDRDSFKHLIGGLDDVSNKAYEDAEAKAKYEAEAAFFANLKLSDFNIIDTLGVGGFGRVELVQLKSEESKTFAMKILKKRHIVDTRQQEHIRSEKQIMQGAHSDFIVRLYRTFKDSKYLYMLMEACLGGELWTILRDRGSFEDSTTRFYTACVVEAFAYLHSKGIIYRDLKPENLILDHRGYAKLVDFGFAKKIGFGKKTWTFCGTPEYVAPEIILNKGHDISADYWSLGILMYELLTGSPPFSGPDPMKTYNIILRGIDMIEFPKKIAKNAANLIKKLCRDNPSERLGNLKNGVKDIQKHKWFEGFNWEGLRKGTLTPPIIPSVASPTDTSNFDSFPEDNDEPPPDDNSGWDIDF
# T24 sequence (Q15569 whole entry): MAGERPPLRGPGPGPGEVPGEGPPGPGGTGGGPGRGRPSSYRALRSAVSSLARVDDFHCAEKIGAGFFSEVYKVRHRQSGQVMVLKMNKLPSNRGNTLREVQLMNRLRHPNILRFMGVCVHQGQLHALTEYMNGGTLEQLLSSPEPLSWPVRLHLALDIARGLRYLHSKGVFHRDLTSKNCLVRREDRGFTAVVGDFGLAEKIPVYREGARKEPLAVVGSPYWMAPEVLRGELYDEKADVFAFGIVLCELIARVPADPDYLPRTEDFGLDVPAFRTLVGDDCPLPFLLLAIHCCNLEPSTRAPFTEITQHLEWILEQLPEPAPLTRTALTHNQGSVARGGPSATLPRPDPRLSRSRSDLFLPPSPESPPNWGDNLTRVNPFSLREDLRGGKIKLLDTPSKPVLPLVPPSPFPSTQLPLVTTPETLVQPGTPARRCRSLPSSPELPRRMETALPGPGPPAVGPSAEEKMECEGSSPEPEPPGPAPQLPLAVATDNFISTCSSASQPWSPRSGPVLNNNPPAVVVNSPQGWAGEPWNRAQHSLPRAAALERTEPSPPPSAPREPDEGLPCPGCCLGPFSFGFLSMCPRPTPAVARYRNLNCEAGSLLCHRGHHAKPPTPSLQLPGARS
# T1 sequence (Q07912 whole entry): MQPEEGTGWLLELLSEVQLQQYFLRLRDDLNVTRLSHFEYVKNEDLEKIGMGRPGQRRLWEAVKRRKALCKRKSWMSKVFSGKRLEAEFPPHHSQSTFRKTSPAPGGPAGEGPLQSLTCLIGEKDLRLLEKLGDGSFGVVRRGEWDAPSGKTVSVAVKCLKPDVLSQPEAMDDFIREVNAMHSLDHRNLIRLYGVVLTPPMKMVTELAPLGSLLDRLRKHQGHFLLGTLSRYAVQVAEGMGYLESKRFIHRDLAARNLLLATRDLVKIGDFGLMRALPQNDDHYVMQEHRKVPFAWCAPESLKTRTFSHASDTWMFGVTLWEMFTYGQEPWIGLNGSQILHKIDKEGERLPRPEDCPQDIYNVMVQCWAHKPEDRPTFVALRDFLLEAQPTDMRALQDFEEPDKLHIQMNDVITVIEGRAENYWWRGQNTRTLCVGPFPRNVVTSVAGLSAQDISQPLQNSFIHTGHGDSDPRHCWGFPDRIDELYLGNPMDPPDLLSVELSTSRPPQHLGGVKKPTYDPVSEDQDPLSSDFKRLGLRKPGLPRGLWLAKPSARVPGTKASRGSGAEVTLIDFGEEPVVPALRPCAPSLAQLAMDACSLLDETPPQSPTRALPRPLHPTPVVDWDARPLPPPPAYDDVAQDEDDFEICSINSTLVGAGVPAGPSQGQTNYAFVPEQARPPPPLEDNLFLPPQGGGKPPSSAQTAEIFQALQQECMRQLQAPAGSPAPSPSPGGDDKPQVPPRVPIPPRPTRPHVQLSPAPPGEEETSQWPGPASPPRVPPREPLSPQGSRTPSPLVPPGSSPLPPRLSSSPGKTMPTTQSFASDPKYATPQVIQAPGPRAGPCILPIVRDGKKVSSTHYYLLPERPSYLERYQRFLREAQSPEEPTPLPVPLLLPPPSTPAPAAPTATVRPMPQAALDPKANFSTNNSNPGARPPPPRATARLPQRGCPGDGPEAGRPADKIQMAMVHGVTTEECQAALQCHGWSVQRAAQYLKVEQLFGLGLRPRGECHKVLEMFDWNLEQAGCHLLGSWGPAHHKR
# T20 sequence (O75582 388-802 limits assumed): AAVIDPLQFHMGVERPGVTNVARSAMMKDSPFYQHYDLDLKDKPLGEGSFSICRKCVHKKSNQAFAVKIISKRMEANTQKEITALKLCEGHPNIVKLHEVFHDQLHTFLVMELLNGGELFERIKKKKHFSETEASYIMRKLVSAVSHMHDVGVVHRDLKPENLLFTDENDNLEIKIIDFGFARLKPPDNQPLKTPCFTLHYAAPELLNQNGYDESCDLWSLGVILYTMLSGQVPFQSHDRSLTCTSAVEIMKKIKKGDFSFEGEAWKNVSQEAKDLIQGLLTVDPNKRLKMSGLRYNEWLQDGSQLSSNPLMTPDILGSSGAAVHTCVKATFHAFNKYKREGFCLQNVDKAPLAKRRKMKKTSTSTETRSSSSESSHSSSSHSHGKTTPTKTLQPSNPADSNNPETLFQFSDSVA
# T31 sequence (Q02779 whole entry): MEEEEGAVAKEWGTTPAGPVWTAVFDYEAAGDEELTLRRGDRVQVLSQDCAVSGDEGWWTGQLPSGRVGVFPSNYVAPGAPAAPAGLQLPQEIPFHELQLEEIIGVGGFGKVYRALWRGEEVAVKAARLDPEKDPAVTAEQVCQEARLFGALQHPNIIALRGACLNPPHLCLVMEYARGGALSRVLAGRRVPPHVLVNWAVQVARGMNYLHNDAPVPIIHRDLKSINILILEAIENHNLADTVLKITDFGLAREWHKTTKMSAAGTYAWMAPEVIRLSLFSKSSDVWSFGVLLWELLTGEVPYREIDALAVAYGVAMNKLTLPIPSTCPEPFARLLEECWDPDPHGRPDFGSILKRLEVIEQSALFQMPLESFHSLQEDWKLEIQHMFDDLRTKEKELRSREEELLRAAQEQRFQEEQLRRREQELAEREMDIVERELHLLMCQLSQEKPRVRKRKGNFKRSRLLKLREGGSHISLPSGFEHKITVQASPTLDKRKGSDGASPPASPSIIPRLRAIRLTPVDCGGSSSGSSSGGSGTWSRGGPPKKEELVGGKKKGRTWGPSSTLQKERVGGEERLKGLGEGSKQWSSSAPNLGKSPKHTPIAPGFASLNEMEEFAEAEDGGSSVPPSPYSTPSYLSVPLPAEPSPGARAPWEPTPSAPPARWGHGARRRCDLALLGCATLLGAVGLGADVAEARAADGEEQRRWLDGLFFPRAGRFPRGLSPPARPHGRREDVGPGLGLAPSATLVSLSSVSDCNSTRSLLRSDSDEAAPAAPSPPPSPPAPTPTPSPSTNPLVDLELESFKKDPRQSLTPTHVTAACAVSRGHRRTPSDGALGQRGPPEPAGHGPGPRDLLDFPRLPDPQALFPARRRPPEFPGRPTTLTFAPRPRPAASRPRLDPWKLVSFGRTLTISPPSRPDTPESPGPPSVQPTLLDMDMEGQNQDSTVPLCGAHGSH
# T38 sequence (P10721 26-976 V559D): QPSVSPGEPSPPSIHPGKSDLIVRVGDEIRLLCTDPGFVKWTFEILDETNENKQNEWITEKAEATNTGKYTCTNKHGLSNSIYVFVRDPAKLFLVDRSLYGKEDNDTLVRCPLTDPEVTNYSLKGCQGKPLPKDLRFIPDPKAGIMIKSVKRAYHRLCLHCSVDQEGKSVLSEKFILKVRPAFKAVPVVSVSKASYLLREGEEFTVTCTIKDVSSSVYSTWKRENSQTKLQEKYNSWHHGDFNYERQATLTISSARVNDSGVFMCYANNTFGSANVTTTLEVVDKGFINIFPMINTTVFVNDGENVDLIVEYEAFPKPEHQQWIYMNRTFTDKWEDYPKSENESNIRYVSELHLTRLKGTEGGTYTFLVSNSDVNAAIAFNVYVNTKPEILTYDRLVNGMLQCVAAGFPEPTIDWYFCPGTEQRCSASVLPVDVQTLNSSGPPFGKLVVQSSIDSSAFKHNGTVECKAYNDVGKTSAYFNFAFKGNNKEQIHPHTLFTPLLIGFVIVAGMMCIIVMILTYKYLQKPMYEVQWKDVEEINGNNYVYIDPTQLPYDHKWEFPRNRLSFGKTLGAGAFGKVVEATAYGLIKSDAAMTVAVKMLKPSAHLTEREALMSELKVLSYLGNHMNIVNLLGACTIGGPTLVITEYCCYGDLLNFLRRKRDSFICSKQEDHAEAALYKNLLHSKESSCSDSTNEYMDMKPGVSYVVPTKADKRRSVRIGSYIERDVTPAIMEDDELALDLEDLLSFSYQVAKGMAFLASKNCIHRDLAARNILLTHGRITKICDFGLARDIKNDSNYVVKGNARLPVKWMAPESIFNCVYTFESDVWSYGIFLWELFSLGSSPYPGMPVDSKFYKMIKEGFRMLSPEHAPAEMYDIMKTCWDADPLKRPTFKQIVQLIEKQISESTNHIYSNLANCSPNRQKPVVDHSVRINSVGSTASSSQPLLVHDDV
# T17 sequence (O75676 1-371 limits assumed): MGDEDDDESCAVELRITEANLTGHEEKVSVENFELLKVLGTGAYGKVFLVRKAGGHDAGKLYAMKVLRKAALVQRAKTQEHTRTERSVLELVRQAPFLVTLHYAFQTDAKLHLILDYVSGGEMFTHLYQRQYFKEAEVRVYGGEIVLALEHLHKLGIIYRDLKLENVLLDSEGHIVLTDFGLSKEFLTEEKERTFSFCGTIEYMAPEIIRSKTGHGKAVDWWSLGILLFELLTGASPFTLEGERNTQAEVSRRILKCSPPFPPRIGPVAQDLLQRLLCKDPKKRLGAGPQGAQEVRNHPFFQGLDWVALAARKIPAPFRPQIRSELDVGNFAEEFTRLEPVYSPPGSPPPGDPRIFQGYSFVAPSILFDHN
structure (smiles),measurement,setting,value
"CC(C)c1ccc(CC(=O)N2CCN(c3ccc(C#N)nn3)CC2)cc1 [PZ-2891, 6-(4-(2-(4-isopropylphenyl)acetyl)piperazin-1-yl)pyridazine-3-carbonitrile]",remaining binding at 10 µM,[1],98%
same,remaining binding at 10 µM,[2],88%
same,remaining binding at 10 µM,[3],90%
same,remaining binding at 10 µM,[4],85%
same,remaining binding at 10 µM,[5],74%
same,remaining binding at 10 µM,[6],79%
same,remaining binding at 10 µM,[7],100%
same,remaining binding at 10 µM,[8],100%
same,remaining binding at 10 µM,[9],74%
same,remaining binding at 10 µM,[10],100%
same,remaining binding at 10 µM,[11],84%
same,remaining binding at 10 µM,[12],100%
same,remaining binding at 10 µM,[13],96%
same,remaining binding at 10 µM,[14],86%
same,remaining binding at 10 µM,[15],88%
same,remaining binding at 10 µM,[16],60%
same,remaining binding at 10 µM,[17],96%
same,remaining binding at 10 µM,[18],68%
same,remaining binding at 10 µM,[19],85%
same,remaining binding at 10 µM,[20],96%
same,remaining binding at 10 µM,[21],89%
same,half-life,[22],> 50 h
same,remaining binding at 10 µM,[23],65%
same,remaining binding at 10 µM,[24],79%
same,remaining binding at 10 µM,[25],86%
same,remaining binding at 10 µM,[26],66%
same,remaining binding at 10 µM,[27],61%
same,remaining binding at 10 µM,[28],82%
same,remaining binding at 10 µM,[29],86%
same,remaining binding at 10 µM,[30],94%
same,remaining binding at 10 µM,[31],94%
same,remaining binding at 10 µM,[32],72%
same,remaining binding at 10 µM,[33],89%
same,remaining binding at 10 µM,[34],90%
same,remaining binding at 10 µM,[35],93%
same,remaining binding at 10 µM,[36],86%
same,remaining binding at 10 µM,[37],100%
same,remaining binding at 10 µM,[38],100%
same,remaining binding at 10 µM,[39],81%
same,remaining binding at 10 µM,[40],67%
same,remaining binding at 10 µM,[41],99%
